Results from publication PMC6311682, “Design, Synthesis, and Biological Evaluation of 2-Nitroimidazopyrazin-one/-es with Antitubercular and Antiparasitic Activity” (Journal of Medicinal Chemistry, 2018).
Values after ≈ are worked out from the molar mass of the structure shown. Values joined by “and” are separate entries in the source; they are usually repeats but may differ in a detail not shown here. Equal values may be shown once. Read-outs that look alike come from different tables or passages of the source.

Assays:
M. tuberculosis (H37Rv) = experiment: M. tuberculosis H37Rv resazurin reduction microplate MIC assay, hypoxic conditions (0.1% oxygen); assay type: cell-based, Mycobacterium tuberculosis
HepG2 cells = test system: HepG2 cells; parameters: method as in Jarrad et al. 2; details: ATCC HB-8065; ref Jarrad et al. 2; read-out: cytotoxicity CC50 HepG2; cited from earlier work
HEK293 cells = test system: HEK293 cells; parameters: method as in Jarrad et al. 2; details: ATCC CRL-1573; ref Jarrad et al. 2; read-out: cytotoxicity CC50 HEK 293; cited from earlier work
[1] = test system: L. donovani MHOM/IN/80/DD8 (ATCC50212); experiment: L. donovani DD8 intracellular (THP-1) amastigote assay; assay type: cell-based; details: Leishmania donovani
[2] = Kinetic solubility determination by LC-UV; details: room temperature, 1% DMSO
[3] = test system: E. histolytica (HM1:IMSS); experiment: ATP-bioluminescence cell growth and survival assay, E. histolytica trophozoites; assay type: cell-based; details: Entamoeba histolytica
[4] = Broth microdilution MIC assay, ESKAPE pathogens; assay type: cell-based; details: S. aureus, E. coli, K. pneumoniae, A. baumannii, P. aeruginosa; read-out: antibacterial MIC ESKAPE
[5] = test system: ESKAPE pathogens S. aureus (ATCC 43300), E. coli (ATCC 25922), K. pneumoniae (ATCC 700603), A. baumannii (ATCC 19606), P. aeruginosa (ATCC 27853); experiment: Broth microdilution MIC assay, ESKAPE pathogens; assay type: cell-based
[6] = Mammalian cytotoxicity assay (resazurin), HepG2; details: human, HepG2 cells
[7] = test system: C. albicans (ATCC 90028) and C. neoformans (H99, ATCC 208821); experiment: Broth microdilution MIC assay, fungi; assay type: cell-based; details: for MIC: Candida albicans, read-out: antifungal MIC
[8] = Mammalian cytotoxicity assay (resazurin), HEK293; details: human, HEK293 cells
[9] = test system: T. b. brucei (strain 427, BS427); experiment: 384-well resazurin viability assay, T. b. brucei bloodstream parasites; assay type: cell-based; details: Trypanosoma brucei, BS427, n = 2; read-out: antiparasitic IC50 T. b. brucei
[10] = test system: C. difficile (630, ATCC BAA-1382); experiment: Broth microdilution MIC assay, C. difficile; assay type: cell-based, Clostridium difficile; details: 630 ATCC BAA-1382, median MIC; for MIC: Clostridioides difficile, ATCCBAA1382, read-out: antibacterial MIC C. difficile
[11] = read-out: antiparasitic IC50 L. donovani
[12] = read-out: antiparasitic pIC50 ± SE L. donovani (converted)
[13] = PBS, pH 7.4, Solubility µM (PBS), PBS pH 7.4, 24 h
[14] = water, Solubility µM (H2O), 24 h
[15] = read-out: antiparasitic IC50 E. histolytica
[16] = read-out: antiparasitic pIC50 ± SE E. histolytica (converted)

SMILES | CC50 (HepG2 cells) [µM] | CC50 (HEK293 cells) [µM] | IC50 [1, 11] [µM] | IC50 [1, 12] [µM] | solubility at 24 h [2, 13] [µM] | solubility at 24 h [2, 14] [µM] | MIC [4] [µg/mL] | antibacterial MIC ESKAPE [5] [µg/mL] | CC50 at 24 h [6] [µM] | antifungal MIC [7] [µg/mL] | MIC [7] [µg/mL] | CC50 at 24 h [8] [µM] | MIC [10] [µg/mL] | further results
O=C(NCc1ccc(OC(F)(F)F)cc1)c1ncc([N+](=O)[O-])[nH]1 [16c] | 104 | 93 | – | – | – | – | – | – | – | – | – | – | – | M. tuberculosis hypoxia % I (M. tuberculosis (H37Rv); at 32 μg/mL): 75% and 60–75%
O=C(NCc1ccc(F)cc1)c1ncc([N+](=O)[O-])[nH]1 [16e] | > 100 | > 100 | – | – | – | – | – | – | – | – | – | – | – | –
O=C(NCc1cccc(OC(F)(F)F)c1)c1ncc([N+](=O)[O-])[nH]1 [16f] | > 100 | > 100 | – | – | – | – | – | – | – | – | – | – | – | –
Cc1cccc(Cn2ccn3cc([N+](=O)[O-])nc3c2=O)c1 [17g, 7-(3-Methylbenzyl)-2-nitroimidazo[1,2-a]pyrazin-8(7H)-one] | – | – | > 20 | > 20 | < 5 | < 5 | > 32 | >32 | – | – | – | – | – | M. tuberculosis hypoxia % I (M. tuberculosis (H37Rv); @ 0.125–8 μg/mL): 70–90% I @ 0.125–8 μg/mL; IC50 [3, 15]: > 50 µM; IC50 [3, 16]: > 50.1 µM
O=c1c2nc([N+](=O)[O-])cn2ccn1Cc1cccc(C(F)(F)F)c1 [17h, 2-Nitro-7-(3-(trifluoromethyl)benzyl)imidazo[1,2-a]pyrazin-8(7H)-one] | – | – | > 40 | > 39.8 | – | – | > 32 | >32 | – | – | – | – | – | M. tuberculosis hypoxia % I (M. tuberculosis (H37Rv); @ 0.06–16 μg/mL): 70–90% I @ 0.06–16 μg/mL; IC50 [3, 15]: > 50 µM; IC50 [3, 16]: > 50.1 µM
CC(=O)OCCn1c(-c2ccccc2)cn2cc([N+](=O)[O-])nc2c1=O [24b, 2-(2-Nitro-8-oxo-6-phenylimidazo[1,2-a]pyrazin-7(8H)-yl)ethyl Acetate] | – | – | > 80 | > 79.4 | 187 ± 17.4 | 164 ± 7.57 | > 32 | >32 | > 100 | >32 | > 32 | > 100 | 64 | IC50 [9]: < 1 µM
CC(=O)OCCn1c(C)cn2cc([N+](=O)[O-])nc2c1=O [25b, 2-(6-Methyl-2-nitro-8-oxoimidazo[1,2-a]pyrazin-7(8H)-yl)ethyl Acetate] | – | – | > 80 | > 79.4 | > 200 | > 200 | > 32 | >32 | > 100 | >32 | > 32 | > 100 | > 64 | IC50 [9]: < 1 µM; antibacterial MIC C. difficile [10]: >64 µg/mL
CC(=O)OCCOc1nc(C)cn2cc([N+](=O)[O-])nc12 [25c, 2-((6-Methyl-2-nitroimidazo[1,2-a]pyrazin-8-yl)oxy)ethyl] | – | – | > 80 | > 79.4 | 185 ± 2.69 (≈ 51.8 µg/mL) | 169 ± 11 (≈ 47.4 µg/mL) | > 32 | >32 | > 100 | >32 | > 32 | > 100 | > 64 | antibacterial MIC C. difficile [10]: >64 µg/mL
Cc1cn2cc([N+](=O)[O-])nc2c(=O)n1CCO [25d, 7-(2-Hydroxyethyl)-6-methyl-2-nitroimidazo[1,2-a]pyrazin-8(7H)-one] | – | – | > 80 | > 79.4 | > 200 | > 200 | > 32 | >32 | > 100 | >32 | > 32 | > 100 | > 64 | antibacterial MIC C. difficile [10]: >64 µg/mL
Cc1cn2cc([N+](=O)[O-])nc2c(OCCO)n1 [25e, 2-((6-Methyl-2-nitroimidazo[1,2-a]pyrazin-8-yl)oxy)ethan-1-ol] | – | – | > 80 | > 79.4 | 193 ± 3.28 (≈ 46 µg/mL) | 196 ± 1.45 (≈ 46.7 µg/mL) | > 32 | >32 | > 100 | >32 | > 32 | > 100 | > 64 | antibacterial MIC C. difficile [10]: >64 µg/mL
Cc1[nH]c(=O)c2nc([N+](=O)[O-])cn2c1C [26a, 5,6-Dimethyl-2-nitroimidazo[1,2-a]pyrazin-8(7H)-one] | – | – | > 80 | > 79.4 | > 200 | > 200 | > 32 | >32 | > 100 | >32 | > 32 | > 100 | > 64 | antibacterial MIC C. difficile [10]: >64 µg/mL
Cc1nc(OCc2ccc(OC(F)(F)F)cc2)c2nc([N+](=O)[O-])cn2c1C [26c, 5,6-Dimethyl-2-nitro-8-((4-(trifluoromethoxy)benzyl)oxy)imidazo[1,2-a]pyrazine] | – | – | > 80 | > 79.4 | < 5 | < 5 | > 32 | >32 | > 100 | >32 | > 32 | > 100 | > 64 | antibacterial MIC C. difficile [10]: >64 µg/mL
NC(=O)c1nc([N+](=O)[O-])cn1Cc1ccc(OC(F)(F)F)cc1 [28c] | > 100 | > 100 | – | – | – | – | – | – | – | – | – | – | – | –
NC(=O)c1nc([N+](=O)[O-])cn1Cc1ccc(F)cc1 [28e] | > 100 | > 100 | – | – | – | – | – | – | – | – | – | – | – | –
NC(=O)c1nc([N+](=O)[O-])cn1Cc1cccc(OC(F)(F)F)c1 [28f] | > 100 | > 100 | – | – | – | – | – | – | – | – | – | – | – | –
CNC(=O)c1nc([N+](=O)[O-])cn1Cc1ccc(OC(F)(F)F)cc1 [28g] | > 100 | > 100 | – | – | – | – | – | – | – | – | – | – | – | –
CN(C)C(=O)c1nc([N+](=O)[O-])cn1Cc1ccc(OC(F)(F)F)cc1 [28h] | > 100 | > 100 | – | – | – | – | – | – | – | – | – | – | – | –
CCOC(=O)c1nc([N+](=O)[O-])cn1Cc1ccc(OC(F)(F)F)cc1 [28i] | > 100 | > 100 | – | – | – | – | – | – | – | – | – | – | – | –
O=C(NO)c1nc([N+](=O)[O-])cn1Cc1ccc(OC(F)(F)F)cc1 [28j] | > 100 | 36 | – | – | – | – | – | – | – | – | – | – | – | M. tuberculosis hypoxia % I (M. tuberculosis (H37Rv); at 32 μg/mL): 60% and 60–75%
NNC(=O)c1nc([N+](=O)[O-])cn1Cc1ccc(OC(F)(F)F)cc1 [28k] | > 100 | > 100 | – | – | – | – | – | – | – | – | – | – | – | –
Cc1ncc([N+](=O)[O-])n1CCO [metronidazole 1, metronidazole, reference compound] | > 100 | > 100 | – | – | – | – | > 32 | – | > 100 | – | > 32 | > 100 | – | –
